This experiment relates to L1210 leukemia ip in BDF1 mice, survival T/C. As to the kind of experiment: NCI In Vivo Anticancer Drug Screen. Data for tumor model L1210 Leukemia (intraperitoneal) in B6D2F1 (BDF1) mice. Particulars: endpoint: mean survival time, higher = longer survival. An outline of the steps: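 Read-out is survival time, reported as the treated-group measurement over the vehicle-control measurement.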

The mark [1] stands for this setting: dose: 100.0 mg/kg/injection, schedule: Q04DX002 (ip), vehicle: saline.

Values joined by “and” are separate entries in the source; they are usually repeats but may differ in a detail not shown here. Equal values may be shown once. Toxic doses and inconclusive results are not listed.

In the case of `Cc1cc(=O)[nH]n1-c1ccc(N)cc1`, the T/C is 105 % of control (dose: 100.0 mg/kg/injection, schedule: Q04DX003 (ip), vehicle: Klucel (hydroxypropylcellulose) (HPC)); 94 % of control (dose: 200.0 mg/kg/injection, schedule: Q04DX003 (ip), vehicle: Klucel (hydroxypropylcellulose) (HPC)); 103 % of control (dose: 400.0 mg/kg/injection, schedule: Q04DX003 (ip), vehicle: Klucel (hydroxypropylcellulose) (HPC)).
With `CCCc1cccc[n+]1CC(=O)c1ccccc1`, the T/C is 115 % of control (dose: 6.25 mg/kg/injection, schedule: Q01DX009 (ip), vehicle: saline sonified); 107 % of control (dose: 12.5 mg/kg/injection, schedule: Q01DX009 (ip), vehicle: saline sonified); 91 % of control (dose: 25.0 mg/kg/injection, schedule: Q01DX009 (ip), vehicle: saline sonified).
As to `CCOC1(OCC)C(Cl)=C(Cl)C(Cl)=C1Cl`, the T/C is, setting by setting: (dose: 25.0 mg/kg/injection, schedule: Q01DX005 (ip), vehicle: Klucel (hydroxypropylcellulose) (HPC)) 108 % of control; (dose: 25.0 mg/kg/injection, schedule: Q01DX009 (ip), vehicle: Klucel (hydroxypropylcellulose) (HPC)) 110 % of control; (dose: 25.0 mg/kg/injection, schedule: Q04DX002 (ip), vehicle: Klucel (hydroxypropylcellulose) (HPC)) 104 % of control; (dose: 50.0 mg/kg/injection, schedule: Q01DX005 (ip), vehicle: Klucel (hydroxypropylcellulose) (HPC)) 102 % of control; (dose: 50.0 mg/kg/injection, schedule: Q01DX009 (ip), vehicle: Klucel (hydroxypropylcellulose) (HPC)) 96 % of control; (dose: 50.0 mg/kg/injection, schedule: Q04DX002 (ip), vehicle: Klucel (hydroxypropylcellulose) (HPC)) 104 % of control. For the same molecule, the T/C (dose: 100.0 mg/kg/injection, schedule: Q01DX005 (ip), vehicle: Klucel (hydroxypropylcellulose) (HPC)) was 97 % of control.
Take `C=CCOc1ccn(CC=C)c(=O)n1`: the T/C is 96 % of control (dose: 100.0 mg/kg/injection, schedule: Q01DX001 (ip), vehicle: Klucel (hydroxypropylcellulose) (HPC)); 98 % of control (dose: 200.0 mg/kg/injection, schedule: Q01DX001 (ip), vehicle: Klucel (hydroxypropylcellulose) (HPC)); 105 % of control (dose: 400.0 mg/kg/injection, schedule: Q01DX001 (ip), vehicle: Klucel (hydroxypropylcellulose) (HPC)).
Turning to `CC(C#N)N(C)C` (stereo unspecified), the T/C reads like this: (dose: 5.0 mg/kg/injection, schedule: Q01DX001 (ip), vehicle: saline) 96 % of control; (dose: 10.0 mg/kg/injection, schedule: Q01DX001 (ip), vehicle: saline) 104 % of control; (dose: 10.0 mg/kg/injection, schedule: Q01DX009 (ip), vehicle: saline) 98 % of control; (dose: 20.0 mg/kg/injection, schedule: Q01DX001 (ip), vehicle: saline) 102 % of control; (dose: 20.0 mg/kg/injection, schedule: Q01DX009 (ip), vehicle: saline) 109 % of control; (dose: 40.0 mg/kg/injection, schedule: Q01DX009 (ip), vehicle: saline) 98 % of control.
For `C=CCc1ccccc1OCC(=O)O`, the T/C runs as follows: (dose: 100.0 mg/kg/injection, schedule: Q04DX002 (ip), vehicle: Klucel (hydroxypropylcellulose) (HPC)) 91 % of control; (dose: 200.0 mg/kg/injection, schedule: Q04DX002 (ip), vehicle: Klucel (hydroxypropylcellulose) (HPC)) 95 % of control; (dose: 400.0 mg/kg/injection, schedule: Q04DX002 (ip), vehicle: Klucel (hydroxypropylcellulose) (HPC)) 104 % of control.
As for `Cc1c2cnccc2c(C)c2c1c1ccccc1n2C`, the T/C runs as follows: (dose: 29.0 mg/kg/injection, schedule: Q01DX Z (ip), vehicle: saline) 109 % of control; (dose: 44.0 mg/kg/injection, schedule: Q01DX Z (ip), vehicle: saline) 123 % of control; (dose: 66.0 mg/kg/injection, schedule: Q01DX Z (ip), vehicle: saline) 120 % of control; (dose: 66.0 mg/kg/injection, schedule: Q01DX Z (oral), vehicle: saline) 112 % of control; (dose: 100.0 mg/kg/injection, schedule: Q01DX Z (ip), vehicle: saline) 121 % of control; (dose: 100.0 mg/kg/injection, schedule: Q01DX Z (oral), vehicle: saline) 115 % of control. Further, the T/C (dose: 150.0 mg/kg/injection, schedule: Q01DX Z (oral), vehicle: saline) is 155 % of control and the T/C (dose: 225.0 mg/kg/injection, schedule: Q01DX Z (oral), vehicle: saline) was 171 % of control.
For `Cc1ccc2c(N=Nc3ccc(N(C)C)cc3)cccc2n1`, the T/C (dose: 25.0 mg/kg/injection, schedule: Q01DX009 (ip), vehicle: saline with Tween-80) is 93 % of control; the T/C (dose: 50.0 mg/kg/injection, schedule: Q01DX009 (ip), vehicle: saline with Tween-80) is 93 % of control; the T/C (dose: 100.0 mg/kg/injection, schedule: Q01DX009 (ip), vehicle: saline with Tween-80) was 98 % of control.
For the molecule `CCOC(=O)/C=C(/CC(=O)OCC)Nc1ccc(C)cc1`, the T/C reads like this: (dose: 100.0 mg/kg/injection, schedule: Q01DX001 (ip), vehicle: saline) 89 % of control; (dose: 200.0 mg/kg/injection, schedule: Q01DX001 (ip), vehicle: saline) 99 % of control; (dose: 400.0 mg/kg/injection, schedule: Q01DX001 (ip), vehicle: saline) 97 % of control.
Turning to `CCOC(=O)CNC(=O)C(O)C(O)C(O)C(O)CO` (stereo unspecified), the T/C (dose: 100.0 mg/kg/injection, schedule: Q04DX003 (ip), vehicle: saline) was 102 % of control; the T/C (dose: 200.0 mg/kg/injection, schedule: Q04DX003 (ip), vehicle: saline) is 97 % of control; the T/C (dose: 400.0 mg/kg/injection, schedule: Q04DX003 (ip), vehicle: saline) is 91 % of control.
For `CCOC(=O)CCC(NC(=O)c1ccc(N(C)Cc2cnc3nc(NC(C)=O)cc(NC(C)=O)c3n2)cc1)C(=O)OCC` (stereo unspecified), the T/C was 102 % of control (dose: 100.0 mg/kg/injection, schedule: Q01DX001 (ip), vehicle: other); 93 % of control (dose: 200.0 mg/kg/injection, schedule: Q01DX001 (ip), vehicle: other); 95 % of control (dose: 400.0 mg/kg/injection, schedule: Q01DX001 (ip), vehicle: other).
`O=[N+]([O-])c1cc(S(=O)(=O)c2ccc(O)c([N+](=O)[O-])c2)ccc1O`: the T/C reads like this: (dose: 25.0 mg/kg/injection, schedule: Q04DX002 (ip), vehicle: saline) 98 % of control; (dose: 50.0 mg/kg/injection, schedule: Q04DX002 (ip), vehicle: saline) 98 % of control; under setting [1], 98 % of control and 104 % of control.
As for `CCC[CH2][Pb]([CH2]CCC)([CH2]CCC)[CH2]CCC`, the T/C by setting is: (dose: 100.0 mg/kg/injection, schedule: Q04DX002 (ip), vehicle: saline with Tween-80) 107 % of control; (dose: 200.0 mg/kg/injection, schedule: Q04DX002 (ip), vehicle: saline with Tween-80) 105 % of control; (dose: 400.0 mg/kg/injection, schedule: Q04DX002 (ip), vehicle: saline with Tween-80) 102 % of control.
Turning to `O=S(=O)(F)/C=C/c1ccccc1`, the T/C is 96 % of control (dose: 15.0 mg/kg/injection, schedule: Q01DX015 (ip), vehicle: saline); 96 % of control (dose: 30.0 mg/kg/injection, schedule: Q01DX015 (ip), vehicle: saline); 100 % of control (dose: 60.0 mg/kg/injection, schedule: Q01DX015 (ip), vehicle: saline); 96 % of control (dose: 120.0 mg/kg/injection, schedule: Q01DX015 (ip), vehicle: saline).
Turning to `NC(=S)N/N=C/c1c(O)ccc2ccccc12`, the T/C is, setting by setting: (dose: 100.0 mg/kg/injection, schedule: Q01DX001 (ip), vehicle: carboxymethylcellulose (CMC)) 96 % of control; (dose: 200.0 mg/kg/injection, schedule: Q01DX001 (ip), vehicle: carboxymethylcellulose (CMC)) 94 % of control; (dose: 400.0 mg/kg/injection, schedule: Q01DX001 (ip), vehicle: carboxymethylcellulose (CMC)) 94 % of control.
Take `O=[N+]([O-])/C(N=Nc1ccc2ccccc2c1)=N\Nc1ccc2ccccc2c1`: the T/C is, setting by setting: (dose: 10.0 mg/kg/injection, schedule: Q01DX001 (ip), vehicle: acetone) 98 % of control; (dose: 20.0 mg/kg/injection, schedule: Q01DX001 (ip), vehicle: acetone) 94 % of control; (dose: 40.0 mg/kg/injection, schedule: Q01DX001 (ip), vehicle: acetone) 88 % of control; (dose: 75.0 mg/kg/injection, schedule: Q01DX001 (ip), vehicle: acetone) 89 % of control; (dose: 300.0 mg/kg/injection, schedule: Q01DX001 (ip), vehicle: acetone) 89 % of control.
`COc1ccc(NC(=O)c2cc3ccccc3cc2OC(=O)NC(C)(C)C)cc1`: the T/C is, setting by setting: under setting [1], 103 % of control; (dose: 200.0 mg/kg/injection, schedule: Q04DX002 (ip), vehicle: saline) 113 % of control; (dose: 400.0 mg/kg/injection, schedule: Q04DX002 (ip), vehicle: saline) 97 % of control.

Source of the values: PubChem BioAssay AID248 (DTP/NCI, 2004).
